IC50 data for ten compounds are collected here from BindingDB's records for PubMed 36793429 (Therachem Research Medilab, 2023).

pIC50: −log10 of the molar value.

Coagulation factor XI (Homo sapiens), sequence (P03951 whole entry, looked up): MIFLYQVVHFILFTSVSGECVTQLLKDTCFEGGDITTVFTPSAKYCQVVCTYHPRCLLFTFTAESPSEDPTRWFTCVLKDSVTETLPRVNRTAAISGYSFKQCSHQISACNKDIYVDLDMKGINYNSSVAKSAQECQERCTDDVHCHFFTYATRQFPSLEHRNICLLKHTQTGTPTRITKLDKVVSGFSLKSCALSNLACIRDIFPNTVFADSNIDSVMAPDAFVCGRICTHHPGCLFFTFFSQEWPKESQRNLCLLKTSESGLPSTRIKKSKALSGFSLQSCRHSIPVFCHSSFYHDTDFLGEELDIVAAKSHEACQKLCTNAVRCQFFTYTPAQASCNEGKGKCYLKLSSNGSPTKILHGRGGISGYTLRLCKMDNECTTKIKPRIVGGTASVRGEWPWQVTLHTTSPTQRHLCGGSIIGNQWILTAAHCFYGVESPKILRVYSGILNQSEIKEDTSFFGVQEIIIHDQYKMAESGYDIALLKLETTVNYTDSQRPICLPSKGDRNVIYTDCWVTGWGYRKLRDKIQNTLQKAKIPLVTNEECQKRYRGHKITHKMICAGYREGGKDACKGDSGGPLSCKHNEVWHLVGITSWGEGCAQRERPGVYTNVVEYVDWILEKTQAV

The experiment has as its target Coagulation factor XI (Homo sapiens) (UniProt P03951). Kind of experiment: Inhibition of human factor 11a using GPR-AFC as substrate preincubated for 30 mins followed by substrate addition and measured after 60 mins by fluorescence based analysis.
As usually defined, the pIC50 is −log10 of the IC50, conventionally taken in molar units. Read a low pIC50 as a high IC50. `C[C@H]1CCN(c2ccc(CNC(=O)c3cnnc(N4CC[C@]5(C4)OC(=O)Nc4ccc(Cl)c(F)c45)c3)cn2)C1` showed a pIC50 of 5.13.

The compound `Cc1cnn(Cc2ccc(CNC(=O)c3cncc(N4CC[C@]5(C4)OC(=O)Nc4ccc(Cl)c(F)c45)c3)cn2)c1` showed a pIC50 of 5.00.

`CN1CCN(c2ccc(CNC(=O)c3cncc(N4CC[C@]5(C4)OC(=O)Nc4ccc(Cl)c(F)c45)n3)cn2)CC1` showed a pIC50 of 5.00.

`Cc1cnn(Cc2ccc(CNC(=O)c3cnnc(N4CC[C@]5(C4)OC(=O)Nc4ccc(Cl)c(F)c45)c3)cc2)c1` showed a negative-log IC50 (pIC50) of 5.00.

As for `O=C1Nc2ccc(Cl)c(F)c2[C@]2(CCN(c3cncc(C(=O)NCc4ccc(Cn5ccccc5=O)nc4)n3)C2)O1`, the negative logarithm of the IC50 (pIC50) is 5.00.

For `CN1CCCC1c1ccc(CNC(=O)c2cnnc(N3CC[C@]4(C3)OC(=O)Nc3ccc(Cl)c(F)c34)c2)cc1` (stereo not given in full), the pIC50 is 5.00.

In turn, `O=C1Nc2ccc(Cl)c(F)c2[C@]2(CCN(c3cncc(C(=O)NCc4ccc(Cn5ccccc5=O)nc4)c3)C2)O1` showed a negative-log IC50 (pIC50) of 5.00.

For `C[C@H]1CCN(c2ccc(CNC(=O)c3cncc(N4CC[C@]5(C4)OC(=O)Nc4ccc(Cl)c(F)c45)n3)cn2)C1`, the negative-log IC50 (pIC50) was 5.00.

On to `O=C1Nc2ccc(Cl)c(F)c2[C@]2(CCN(c3cncc(C(=O)NCc4ccc(N5CCC5)nc4)n3)C2)O1`, for which the pIC50 was 5.00.

For `N#CC1(F)CN(Cc2ccc(CNC(=O)c3cnnc(N4CC[C@]5(C4)OC(=O)Nc4ccc(Cl)c(F)c45)c3)cc2)C1`, the pIC50 was 5.00.
